Like-named read-outs stand apart in the source and are kept apart here.
Biological target: T1, V600E full-length B-Raf (Homo sapiens, UniProt P15056, V600E)
T1 construct: 1 μM FSBA-MEK and 20 nM V600E full-length B-Raf; made in house; host or cells: sf9 insect cells (baculovirus)
Assay: B-Raf IC50 Assay (B-RAF V600E inhibition assay, Example A)
Assay type: biochemical
Outline: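 Full-length V600E B-Raf (20 nM, from Sf9 baculovirus) was preincubated 15 min with 1 μM FSBA-modified wild-type MEK in pH 7.2 Pipes/KCl/MgCl2 buffer, then started with 4 μM ATP plus [γ-33P]ATP. After 60 min at 22 °C, TCA-quenched product was filter-captured and 33P incorporation counted by scintillation.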

[1] = B-Raf V600E assay of Example A: less than 100 nM, read-out: IC50
[2] = B-Raf V600E assay of Example A: less than about 1 μM, read-out: IC50
[3] = incorporation of radio labeled phosphate from [γ-33P]ATP into FSBA-modified wild-type MEK, 4 μM ATP, 20 nM V600E full-length B-Raf, 60-minute incubation, 22° C., read-out: BRAF V600E IC50

T1 sequence (P15056 whole entry V600E): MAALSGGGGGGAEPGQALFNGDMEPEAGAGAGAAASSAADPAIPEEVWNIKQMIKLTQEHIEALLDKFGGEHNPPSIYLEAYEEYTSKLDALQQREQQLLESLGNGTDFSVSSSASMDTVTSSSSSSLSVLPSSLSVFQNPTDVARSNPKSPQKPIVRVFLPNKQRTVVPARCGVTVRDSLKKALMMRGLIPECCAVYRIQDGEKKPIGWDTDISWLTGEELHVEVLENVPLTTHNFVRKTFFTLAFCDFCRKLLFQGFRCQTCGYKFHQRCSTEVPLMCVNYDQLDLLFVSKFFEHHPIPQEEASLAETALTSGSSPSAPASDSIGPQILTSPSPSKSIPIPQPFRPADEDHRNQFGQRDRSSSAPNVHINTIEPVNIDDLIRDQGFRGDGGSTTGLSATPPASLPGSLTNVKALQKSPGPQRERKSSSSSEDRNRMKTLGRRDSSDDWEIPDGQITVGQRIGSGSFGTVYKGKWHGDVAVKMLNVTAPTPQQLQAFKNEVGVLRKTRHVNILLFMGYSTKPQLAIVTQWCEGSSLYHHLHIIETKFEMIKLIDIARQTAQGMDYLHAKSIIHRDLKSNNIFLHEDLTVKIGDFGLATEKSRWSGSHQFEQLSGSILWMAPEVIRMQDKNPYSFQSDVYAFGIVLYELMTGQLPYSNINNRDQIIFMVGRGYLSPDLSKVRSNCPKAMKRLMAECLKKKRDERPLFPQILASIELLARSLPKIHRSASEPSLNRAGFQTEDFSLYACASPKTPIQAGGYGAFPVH

Compound	IC50 [1] [nM]	IC50 [2] [nM]	IC50 [3] [nM]
O=C(Nc1c(Cl)ccc(NS(=O)(=O)CCCF)c1F)c1nsc2cncnc12 [Example 112, Isothiazolo[4,5-d] pyrimidine-3-carboxylic acid [6-chloro-2-fluoro-3-(3-fluoro-propane-1-sulfonylamino)-phenyl]-amide]	< 100	< 1000	7.29
CCCS(=O)(=O)Nc1ccc(F)c(NC(=O)c2c[nH]c3c(NC)ncnc23)c1F [Example 103, 4-Methylamino-5H-pyrrolo[3,2-d]pyrimidine-7-carboxylic acid [2,6-difluoro-3-(propane-1-sulfonylamino)-phenyl]-amide]	–	< 1000	115
CCCS(=O)(=O)Nc1cc(F)c(F)c(NC(=O)c2csc3c(NC)ncnc23)c1F [Example 92, 4-Methyl-amino-thieno[3,2-d] pyrimidine-7-carboxylic acid [2,3,6-trifluoro-5-(propane-1-sulfonyl-amino)-phenyl]-amide]	< 100	< 1000	13.2
CCCS(=O)(=O)Nc1ccc(F)c(NC(=O)c2csc3c(NCC(F)F)ncnc23)c1F [Example 53, 4-(2,2-Difluoro-ethylamino)-thieno[3,2-d] pyrimidine-7-carboxylic acid [2,6-difluoro-3-(propane-1-sulfonylamino)-phenyl]-amide]	< 100	< 1000	26.5
CCCS(=O)(=O)Nc1ccc(F)c(NC(=O)c2csc3c(Nc4ccccc4)ncnc23)c1F [Example 63, 4-Phenylamino-thieno[3,2-d]pyrimidine-7-carboxylic acid [2,6-difluoro-3-(propane-1-sulfonylamino)-phenyl]-amide]	< 100	< 1000	35.4
CCCS(=O)(=O)Nc1ccc(Cl)c(NC(=O)c2csc3c(NC4CCC4)ncnc23)c1Cl [Example 72, 4-Cyclobutyl-amino-thieno [3,2-d] pyrimidine-7-carboxylic acid [2,6-dichloro-3-(propane-1-sulfonyl-amino)-phenyl]-amide]	< 100	< 1000	2.4
CCCS(=O)(=O)Nc1cc(F)c(F)c(NC(=O)c2csc3c(NC(C)C)ncnc23)c1F [Example 91, 4-Isopropyl-amino-thieno [3,2-d] pyrimidine-7-carboxylic acid [2,3,6-trifluoro-5-(propane-1-sulfonyl-amino)-phenyl]-amide]	< 100	< 1000	27.9
CCCS(=O)(=O)Nc1ccc(F)c(NC(=O)c2csc3cncnc23)c1F [Example 108, Thieno[3,2-d]pyrimidine-7-carboxylic acid [2,6-difluoro-3-(propane-1-sulfonylamino)-phenyl]-amide]	–	< 1000	288
CCCS(=O)(=O)Nc1cc(F)c(F)c(NC(=O)c2csc3c(NC4CCOC4)ncnc23)c1F (stereo not drawn) [Example 88, 4-(Tetrahydro-furan-3-ylamino)-thieno[3,2-d] pyrimidine-7-carboxylic acid [2,3,6-trifluoro-5-(propane-1-sulfonyl-amino)-phenyl]-amide]	–	< 1000	120
CCCS(=O)(=O)Nc1ccc(F)c(NC(=O)c2csc3c(C)ncnc23)c1Cl [Example 38, 4-Methyl-thieno[3,2-d]pyrimidine-7-carboxylic acid [2-chloro-6-fluoro-3-(propane-1-sulfonylamino)-phenyl]-amide]	< 100	< 1000	46.5

The remaining lines, values ahead:

IC50 [1] [nM]	IC50 [2] [nM]	IC50 [3] [nM]	Compound
< 100	< 1000	10.9	CCCNc1ncnc2c(C(=O)Nc3c(F)ccc(NS(=O)(=O)CCC)c3F)csc12 [Example 49, 4-Propylamino-thieno[3,2-d] pyrimidine-7-carboxylic acid [2,6-difluoro-3-(propane-1-sulfonylamino)-phenyl]-amide]
< 100	< 1000	12	CCS(=O)(=O)Nc1ccc(F)c(NC(=O)c2csc3c(N)ncnc23)c1F [Example 2, 4-Amino-thieno pyrimidine-7-carboxylic acid (3-ethanesulfonylamino-2,6-difluoro-phenyl)-amide]
< 100	< 1000	45.5	CCCS(=O)(=O)Nc1ccc(F)c(NC(=O)c2csc3c(NC4CCC4)ncnc23)c1F [Example 55, 4-Cyclobutyl-amino-thieno [3,2-d] pyrimidine-7-carboxylic acid [2,6-difluoro-3-(propane-1-sulfonylamino)-phenyl]-amide]
< 100	< 1000	1.1	O=C(Nc1c(F)ccc(NS(=O)(=O)CCCF)c1F)c1csc2c(NC3CC3)ncnc12 [Example 64, 4-Cyclopropylamino-thieno[3,2-d]pyrimidine-7-carboxylic acid [2,6-difluoro-3-(3-fluoro-propane-1-sulfonylamino)-phenyl]amide]
< 100	< 1000	36.5	CCCS(=O)(=O)Nc1ccc(F)c(NC(=O)c2csc3c(NC(C)C)ncnc23)c1F [Example 50, 4-Isopropyl-amino-thieno [3,2-d] pyrimidine-7-carboxylic acid [2,6-difluoro-3-(propane-1-sulfonylamino)-phenyl]-amide]
< 100	< 1000	1.01	CCCS(=O)(=O)Nc1ccc(Cl)c(NC(=O)c2csc3c(N)ncnc23)c1F [Example 7, 4-Amino-thieno[3,2-d] pyrimidine-7-carboxylic acid [6-chloro-2-fluoro-3-(propane-1-sulfonyl-amino)-phenyl]-amide]
< 100	< 1000	57.1	CCCS(=O)(=O)Nc1ccc(F)c(NC(=O)c2csc3c(NCCO)ncnc23)c1F [Example 59, 4-(2-Hydroxy-ethylamino)-thieno[3,2-d] pyrimidine-7-carboxylic acid [2,6-difluoro-3-(propane-1-sulfonylamino)-phenyl]-amide]
< 100	< 1000	11.6	Nc1ncnc2c(C(=O)Nc3c(F)ccc(NS(=O)(=O)N4CCCC4)c3F)csc12 [Example 28, 4-Amino-thieno[3,2-d]pyrimidine-7-carboxylic acid[2,6-difluoro-3-(pyrrolidine-1-sulfonylamino)-phenyl]-amide]
< 100	< 1000	4.7	CCCS(=O)(=O)Nc1ccc(F)c(NC(=O)c2csc3c(NC4CC4)ncnc23)c1F [Example 47]
< 100	< 1000	0.86	CCCS(=O)(=O)Nc1ccc(F)c(NC(=O)c2csc3c(N)ncnc23)c1Cl [Example 5, 4-Amino-thieno[3,2-d] pyrimidine-7-carboxylic acid [2-chloro-6-fluoro-3-(propane-1-sulfonyl-amino)-phenyl]-amide]
< 100	< 1000	26	CCCS(=O)(=O)Nc1ccc(F)c(NC(=O)c2csc3c(C(F)F)ncnc23)c1F [Example 42, 4-Difluoromethyl-thieno[3,2-d]pyrimidine-7-carboxylic acid [2,6-difluoro-3-(propane-1-sulfonylamino)-phenyl]-amide]
< 100	< 1000	2.6	CC(C)CS(=O)(=O)Nc1ccc(F)c(NC(=O)c2csc3c(N)ncnc23)c1F [Example 19, 4-Amino-thieno[3,2-d] pyrimidine-7-carboxylic acid [2,6-difluoro-3-(2-methyl-propane-1-sulfonylamino)-phenyl]-amide]
